Laboratory results reported in patent publication US20200223826A1, “Glucose-6-Phosphate Dehydrogenase (G6PD)-Modulating Agents And Methods Of Treating G6PD Deficiency” (The Board of Trustees of the Leland Stanford Junior …, priority 2017, published 2020).

Columns and labels:
Canton G6PD [1] = molecular target: T1, Canton G6PD (Homo sapiens, UniProt P11413, R459L); assay: In vitro proteolysis assay with chymotrypsin; settings: in the presence of AG1, 25% in its absence
T1 construct: His (pET-28a) (N, cleaved yes); made in house; host or cells: E. coli C43 (DE3)
Experimental: 200 ng of recombinant enzymes were incubated with 1 μL of 10 ng/μL chymotrypsin for 1 hour at room temperature. 100 μM of the compound was added to some reaction conditions. The following protein level was examined by Western blot.

[2] = system: SH-SY5Y cells expressing the Canton variant; assay: Viability of SH-SY5Y cells expressing Canton variant; type: cell-based, human
Experimental: Prior to the cellular-based assays using SH-SH5Y cells, duration of overexpression of WT G6PD and Canton variant was examined by transfecting the cells seeded in a 12-well plate. The genes encoding human WT G6PD and Canton variant were first PCR-amplified, which was then inserted into pcDNA 3.1/myc-His C (ThermoFisher Scientific) using HindIII and XhoI. 0.5 μg of cDNA and 1.5 μg of lipofectamine (Invitrogen) were diluted in 50 μL of Opti-MEM medium respectively and incubated for 5 minutes. The diluted DNA was combined with diluted lipofectamine, which was followed by incubation for 20 minutes prior to the addition to cells.
Cell viability was measured using a Cell-Counting Kit-8 (CCK-8, Dojindo), utilizing WST-8 [2-(2-methoxy-4-nitrophenyl)-3-(4-nitrophenyl)-5-(2,4-disulfophenyl)-2H-tetrazolium monosodium salt, according to the manufacturer's instructions. Cells were subjected to serum starvation for 48 hours before measurement. Cells in 100 μL of medium per well were treated with 10 μL of CCK-8 solution and incubated for 2 hours at 37° C. The absorbance was read at 450 nm. Viability of lymphocytes was measured by staining with a 0.4% solution of trypan blue in buffered isotonic salt solution (pH 7.2). The viability was calculated as the number of viable cells (non-stained by the dye) divided by the total number of cells within the grids on the hemacytometer. […]

[3] = molecular target: T2, G6PD in lysate of human fibroblasts with the Mediterranean variant (Homo sapiens, UniProt P11413, S188F); assay: G6PD activity in fibroblast lysate; type: cell-based
T2 construct: host or cells: subject-derived fibroblast cell line
Experimental: Lymphocytes derived from a normal subject (HG 00866) and a G6PD-deficient subject carrying Canton variant in G6PD (HG 02367) were purchased from Coriell Institute and cultured in RPMI 1640 supplemented with 15% fetal bovine serum (FBS), 100 U/ml penicillin, and 100 μg/ml streptomycin. An SH-SY5Y neuroblastoma cell line was cultured in Dulbecco's Modification of Eagle's Medium/Ham's F-12 50/50 Mix supplemented with 10% FBS, 100 U/ml penicillin, and 100 μg/ml streptomycin. A G6PD-deficient subject-derived fibroblast cell line carrying Mediterranean variant and normal fibroblast cell line as control were purchased from Coriell Institute (GM 01152) and ThermoFisher Scientific (C0135C), respectively, and cultured in minimum essential medium supplemented with 15% FBS, 100 U/ml penicillin, and 100 μg/ml streptomycin. All the cell lines were maintained at 37° C. in a humidified incubator with an atmosphere of 5% of CO2 and 95% air.
Enzyme activity was measured by monitoring NADPH production, which was coupled with diaphorase converting resazurin to fluorescent resorufin (excitation at 565 nm and emission at 590 nm); fluorescent signal was thus proportional to G6PD activity. Assays were performed at 25° C. and run for 5 minutes in buffer containing 50 mM Tris (pH 7.4), 0.5 mM EDTA, 3.3 mM MgCl2, 1 U/ml diaphorase, 0.1 mM resazurin. […]

Canton G6PD [4] = molecular target: T1, Canton G6PD; assay: Native gel electrophoresis, dimerization
Experimental: 200 ng of recombinant enzymes were incubated with the compound (varying in assays) for 10 minutes at room temperature. To prevent streaking and artifacts in native PAGE gel, the samples in a native state (no boiling of sample and no reducing agent in sample buffer) were electrophoresed by […]. Cross-linking assay was initiated by incubating 500 ng of recombinant enzymes in PBS with 0.1% of glutaraldehyde and different concentrations of NADP^+ (0, 10, 100, 1000 μM) or MgCl2 (0, 1, 10, 100 mM). The mixture was incubated for 10 minutes at room temperature, which was followed by the addition of 100 mM Tris (pH 8.0) at a final concentration to terminate the reaction. The samples were electrophoresed as described above.

SH-SY5Y cells = assay: Cell viability assay, SH-SY5Y cells, with and without G6PD siRNA knockdown; type: cell-based, human
Experimental: (§1) Cell viability was measured using a Cell-Counting Kit-8 (CCK-8, Dojindo), utilizing WST-8 [2-(2-methoxy-4-nitrophenyl)-3-(4-nitrophenyl)-5-(2,4-disulfophenyl)-2H-tetrazolium monosodium salt, according to the manufacturer's instructions. Cells were subjected to serum starvation for 48 hours before measurement. Cells in 100 μL of medium per well were treated with 10 μL of CCK-8 solution and incubated for 2 hours at 37° C. The absorbance was read at 450 nm. Viability of lymphocytes was measured by staining with a 0.4% solution of trypan blue in buffered isotonic salt solution (pH 7.2). The viability was calculated as the number of viable cells (non-stained by the dye) divided by the total number of cells within the grids on the hemacytometer. Cells were treated with 1 μM of the compound 24 hours before the measurement.
Endogenous G6PD was knocked down in each cell line as follows; 2 pmol of siRNA G6PD (Santa Cruz Biotechnology) and 0.5 μg lipofectamine (Invitrogen) were diluted in 10 μL of Opti-MEM medium respectively and incubated for 5 minutes. The diluted siRNA was combined with diluted lipofectamine, which was followed by additional incubation for 20 minutes prior to the addition to cells in a 96-well plate.

[5] = system: lymphocytes carrying the Canton variant; assay: Viability of lymphocytes; type: cell-based, human; settings: treatment with AG1 for 24 hours
Experimental: as §1

T1 sequence (P11413 whole entry R459L): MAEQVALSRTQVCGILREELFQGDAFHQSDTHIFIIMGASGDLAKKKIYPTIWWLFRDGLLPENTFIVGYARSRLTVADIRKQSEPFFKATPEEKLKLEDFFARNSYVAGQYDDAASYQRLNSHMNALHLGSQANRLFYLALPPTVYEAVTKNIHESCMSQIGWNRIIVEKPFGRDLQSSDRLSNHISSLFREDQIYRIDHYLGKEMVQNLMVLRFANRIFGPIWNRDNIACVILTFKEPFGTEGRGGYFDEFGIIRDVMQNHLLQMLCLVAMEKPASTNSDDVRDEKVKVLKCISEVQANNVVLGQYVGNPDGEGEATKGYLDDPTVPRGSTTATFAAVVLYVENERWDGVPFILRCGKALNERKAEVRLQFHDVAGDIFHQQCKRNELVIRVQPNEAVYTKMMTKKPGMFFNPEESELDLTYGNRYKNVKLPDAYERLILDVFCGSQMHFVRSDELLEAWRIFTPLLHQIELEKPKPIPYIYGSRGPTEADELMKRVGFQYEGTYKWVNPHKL
T2 sequence (P11413 2-515 S188F limits assumed): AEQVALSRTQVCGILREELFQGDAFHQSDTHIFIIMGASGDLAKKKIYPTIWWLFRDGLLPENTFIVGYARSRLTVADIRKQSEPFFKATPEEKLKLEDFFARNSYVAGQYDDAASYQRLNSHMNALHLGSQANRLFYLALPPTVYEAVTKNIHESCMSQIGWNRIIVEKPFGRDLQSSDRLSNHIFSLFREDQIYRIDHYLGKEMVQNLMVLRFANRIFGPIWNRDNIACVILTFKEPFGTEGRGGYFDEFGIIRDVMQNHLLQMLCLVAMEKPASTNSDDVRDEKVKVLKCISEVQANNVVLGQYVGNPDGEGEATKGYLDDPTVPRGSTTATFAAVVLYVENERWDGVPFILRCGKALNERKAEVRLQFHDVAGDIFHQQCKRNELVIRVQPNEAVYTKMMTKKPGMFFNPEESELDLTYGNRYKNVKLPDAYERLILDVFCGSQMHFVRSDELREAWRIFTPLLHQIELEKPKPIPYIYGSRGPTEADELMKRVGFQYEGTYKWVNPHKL

SCCNCCc1c[nH]c2ccccc12 [AG1, 2-[2-(1H-indol-3-yl)ethylamino]ethanethiol]
protein remaining after proteolysis (Canton G6PD [1]): 50% | viability [2]: mild increase | increase of G6PD activity in lysate [3]: 50% | formation of active dimers (Canton G6PD [4]): promoted formation of active dimers | increase of viability of SH-SY5Y cells (SH-SY5Y cells; 1 μM of AG1): 20% | effect on viability of SH-SY5Y cells (SH-SY5Y cells; G6PD knocked down by siRNA): no effect | viability [5]: improved
